Reference: PubChem BioAssay (NCI)
“And” between values parts separate entries of the source, which are not always exact repeats. Equal entries are not always repeated.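 Method: 48-hour compound exposure of cells in 96-well plates, five concentrations, linear interpolation of endpoints. Definition used: TGI = concentration required for complete inhibition of growth.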

Experiments:
Test in all cases: DTP human tumour cell line panel, 48 h
[1] = test system: NCI-H23 lung
[2] = test system: MDA-MB-231 breast
[3] = test system: MOLT-4 leukemia
[4] = test system: OVCAR-3 ovarian
[5] = test system: OVCAR-8 ovarian
[6] = test system: NCI/ADR-RES ovarian
[7] = test system: SNB-19 CNS
[8] = test system: SF-539 CNS
[9] = test system: MALME-3M melanoma
[10] = test system: HCT-116 colon
[11] = test system: U251 CNS
[12] = test system: OVCAR-4 ovarian
[13] = test system: MDA-MB-435
[14] = test system: RXF 393 renal
[15] = test system: TK-10 renal
[16] = test system: RPMI-8226 leukemia
[17] = test system: HCC-2998 colon

| Compound | TGI [1] | TGI [2] | TGI [3] | TGI [4] | TGI [5] | TGI [6] | TGI [7] | TGI [8] | TGI [9] | TGI [10] | TGI [11] | TGI [12] | TGI [13] | TGI [14] | TGI [15] | TGI [16] | TGI [17] |
| --- | --- | --- | --- | --- | --- | --- | --- | --- | --- | --- | --- | --- | --- | --- | --- | --- | --- |
| COc1cc(S(=O)(=O)Nc2nc(-c3ccc(N)cc3)cs2)ccc1Cl | > 100 µM | > 100 µM | > 100 µM | > 100 µM | > 100 µM | > 100 µM | > 100 µM | > 100 µM | > 100 µM | > 100 µM | > 100 µM | > 100 µM | > 100 µM | > 100 µM | > 100 µM | – | – |
| O=C1CSC(c2ccc(Cl)cc2)N1c1ccc(-c2ccc(-n3c(-c4ccccc4)nc4ccccc4c3=O)cc2)cc1 (centres undefined) | > 100 µM | > 100 µM | 83.6 µM | > 100 µM | > 100 µM | 82.5 µM | > 100 µM | > 100 µM | > 100 µM | > 100 µM | 85.8 µM | 56.8 µM | 71.3 µM | – | > 100 µM | > 100 µM | > 100 µM |
| O=C(Nc1sccc1S(=O)(=O)c1ccc(Cl)cc1)C(F)(F)F | > 100 µM | 37.3 µM | 41.1 µM | > 100 µM | > 100 µM | > 100 µM | > 100 µM | 93.7 µM | > 100 µM | 37 µM | > 100 µM | > 100 µM | > 100 µM | – | > 100 µM | 31.4 µM | > 100 µM |
| CCCc1c(C(=O)OCC)[nH]c(-c2ccc(-c3[nH]c(C(=O)OCC)c(CCC)c3C(=O)OCC)o2)c1C(=O)OCC | > 100 µM | – | > 100 µM | > 100 µM | > 100 µM | – | > 100 µM | > 100 µM | > 100 µM | > 100 µM | > 100 µM | > 100 µM | – | > 100 µM | > 100 µM | > 100 µM | > 100 µM |
| COc1ccc2oc(=O)c(CC=C(C)C)c(O)c2c1C | > 100 µM | > 100 µM | > 100 µM | > 100 µM | > 100 µM | > 100 µM | > 100 µM | > 100 µM | > 100 µM | > 100 µM | > 100 µM | – | > 100 µM | – | > 100 µM | > 100 µM | > 100 µM |
| O=C(Nc1nc2ccccc2n1Cc1ccc(Cl)cc1)NC12CC3CC(CC(C3)C1)C2 | 58.4 µM | – | > 100 µM | 60.7 µM | – | – | 53.7 µM | 53.4 µM | 62 µM | 64 µM | 46.9 µM | 28.9 µM | – | 64.5 µM | > 100 µM | > 100 µM | > 100 µM |
| CCOC(=O)C(=Cc1cc(OC)ccc1OC)C(=O)OCC | 10.9 µM | – | 37.9 µM | 22.5 µM | 20.9 µM | – | 25 µM | 15.1 µM | 25.5 µM | 27.5 µM | 20 µM | 21.6 µM | – | 6.2 µM | – | 10.9 µM | 34.8 µM |
| Cc1ccc(CC2(OCCN(C)C)CCC(C(C)(C)C)CC2)cc1 (centres undefined) | 25.6 µM and 24.4 µM | 19 µM and 18.8 µM | 4.11 µM and 4.8 µM | 25.8 µM and 27.2 µM | 16.1 µM and 24.1 µM | 21.5 µM and 22.3 µM | 16.6 µM and 16.8 µM | 4.55 µM and 8.81 µM | 3.36 µM and 3.64 µM | 6.73 µM and 6.24 µM | 6.39 µM and 10.2 µM | 15.2 µM and 16.6 µM | 5.79 µM and 5.96 µM | – | 17.2 µM and 19.6 µM | 4 µM and 4.96 µM | 4.26 µM and 4.73 µM |
| O=C1c2cscc2C(=O)C1(O)O | 45.9 µM | > 100 µM | 57.8 µM | 67.5 µM | > 100 µM | > 100 µM | > 100 µM | > 100 µM | 54.8 µM | 46.3 µM | > 100 µM | > 100 µM | 99.7 µM | – | > 100 µM | > 100 µM | – |
| COC(=O)c1c2c(c(-c3ccccc3)c3c1-c1nc(Cl)ccc1CC3)CCc1ccc(Cl)nc1-2 | > 100 µM | – | > 100 µM | > 100 µM | > 100 µM | – | > 100 µM | > 100 µM | > 100 µM | > 100 µM | > 100 µM | > 100 µM | – | > 100 µM | > 100 µM | > 100 µM | > 100 µM |
| CC(C)=C[C@@H]1C[C@H](C)c2c(O)cc(C)c3c2C1=C(C)C(=O)C3=O | 32.5 µM | 33.9 µM | > 100 µM | 32.1 µM | 35.2 µM | 49.6 µM | 29.1 µM | 32.3 µM | 29.4 µM | 28.5 µM | 26.7 µM | 23.4 µM | 29.4 µM | – | 45.9 µM | 41.6 µM | 54.3 µM |
| O=C(O)c1nc2ccccc2nc1Nc1ccc(F)cc1 | > 100 µM | – | > 100 µM | 77.5 µM | > 100 µM | > 100 µM | > 100 µM | 60 µM | > 100 µM | > 100 µM | > 100 µM | > 100 µM | > 100 µM | 51.8 µM | > 100 µM | > 100 µM | > 100 µM |
| COc1ccc(/C=C2\SC(c3ccc(OC)cc3)N(NC(=O)Cc3ccccc3)C2=O)cc1 (centres undefined) | > 100 µM | – | > 100 µM | – | > 100 µM | – | – | > 100 µM | > 100 µM | > 100 µM | > 100 µM | > 100 µM | – | > 100 µM | > 100 µM | > 100 µM | – |
| O=C1C[C@@H](Sc2ccccc2)C2(OCCO2)[C@H]2ON3CCC[C@@H]3[C@@H]12 | 17.9 µM | 7.67 µM | 8.7 µM | 9.15 µM | 5.57 µM | 31.2 µM | 29 µM | 19.8 µM | 4.31 µM | 2.99 µM | 18 µM | 19.6 µM | 10 µM | – | 19.3 µM | 8.94 µM | 20.8 µM |
| CC1(Br)C(=O)NC(=O)N(C2CC(N=[N+]=[N-])C(CO)O2)C1N=[N+]=[N-] (centres undefined) | > 100 µM | – | > 100 µM | > 100 µM | > 100 µM | – | > 100 µM | > 100 µM | > 100 µM | – | > 100 µM | > 100 µM | – | > 100 µM | > 100 µM | > 100 µM | > 100 µM |
